Reference: US12440475B2, “Hodgkin lymphoma therapy” (priority 2016, dated 2025)

How the values were obtained:
L428 = assay: Clonogenic survival in methylcellulose, L428; type: cell-based, human; conditions: very low doses (0.1 and 0.5 μmol)
Experimental: In all examples, the human Hodgkin lymphoma-derived cell lines L428, L428-c, KMH2, L591, L540, L1236, HDLM2 and SUP-HD were obtained from Dr Steffen Junker (Aarhus University Denmark). All cell lines were cultured in Gibco RPMI 1640 medium supplemented with Glutamax, 10% FBS and antibiotics at 37° C. […] The immunophenotype, P53 status and MSI characterization of the Hodgkin lymphoma cell lines was determined using anti-CD30, CD15, CD20 and CD14 antibodies.
This test was performed on four Hodgkin lymphoma cell lines (L428, L428s, KMH2 and L540). Each was cultured with EDO-S101 at doses of 0, 0.1, 0.5, 1, 10 and 20 μmol in DMSO. The cell lines were cultured in methylcellulose (Stem cell Technologies) at a concentration of 10^5/ml at 37° C. and 5% CO2. The surviving fraction was determined by measuring the viability of colonies generated before and after exposure. Only colonies with more than 50 cells were counted. Each data point represents the average and SD from three independent experiments performed in triplicate.

L428 cells = assay: Orbital tumour mass at injection site in xenografted NSG mice; type: in vivo; conditions: after EDO-S101 injection
Text: Immunodeficient NOD-SCID-gammac−/− (NSG) mice aged 5 to 6 weeks were purchased from Charles River (NOD.Cg-Prkdcscid II2rgtm1Wjl/SzJ). The mice arrived two weeks before the beginning of the experiments and were housed in micro-isolator cages during the entire course of the study. Immediately prior to the injection of Hodgkin lymphoma cells, mice were exposed to 3 Gy gamma irradiation using an IBL637 ^137Cs irradiator at a dose rate of 0.61 Gy/min. From 10^3 to 10^6 cells, either from the original cell lines or following amplification, were injected intravenously via the retro-orbital sinus. The mice were sacrificed by cervical dislocation and different organs were analysed and tumoural infiltration examined using multiple techniques.
Two independent experiments were performed to investigate the dose-effect of EDO-S101 in NSG mice eight weeks after xenografting with L428 cells as in Example 8. The aim of the protocol shown in FIG. 8B was to evaluate the effect of sequential treatment with a moderate dose of 60 mg/kg given at an interval of three weeks.
Some mice developed an orbital tumour mass at the site of the injection. […] In one mouse only that was treated with two doses of 60 mg/kg of EDO-S101, a regression of the orbital tumour was initially observed followed by re-establishment of the orbital mass 3 weeks later. […]

L1236 [1] = assay: Cell cycle checkpoint proteins and gene expression, L1236; type: cell-based, human; conditions: naïve L1236; EDO-S101 alone
L1236-R100 = assay: Viable cell count and IC50, bendamustine-resistant cell line; type: cell-based, human
Experimental: • (a) Five Hodgkin lymphoma cell lines (KMH2, HDML2, L540, L1236 and L426) were cultured separately in the presence of bendamustine, vorinostat and EDO-S101 dissolved in DMSO at 37° C. L1236-derived Hodgkin lymphoma cell lines were selected as they have an acquired stable resistance to bendamustine (R100) or an ability to display continuous growth upon extended exposure to sub-lethal concentrations of bendamustine (R25, R50 and R75). A detailed description of the L1236-R Hodgkin lymphoma cell lines is disclosed in De Filippi et al, ASH 2015, Abstract. #2479. In these tests, the L1236-100R bendamustine resistant strain was used. […] Control cells were cultured in the same final concentration of DMSO. The number of viable cells was assessed at 24, 48 and 72 hours through a Countess™ automated cell counter (Invitrogen), each experiment being repeated three times and the results given being the mean of the three results±SD.

L1236 [2] = assay: Combination with Brentuximab Vedotin, % survival, L1236; type: cell-based, human; conditions: EDO-S101 1.56 μM (sub-IC50) with Brentuximab Vedotin 3.12 μg/ml
Experimental: 1.56 μM of EDO-S101 was administered to two Hodgkin lymphoma cell lines, the bendamustine naïve cell line L1236 and the bendamustine resistant cell line R100. In a second experiment, Brentuximab Vedotin was administered at a concentration of 3.12 μg/ml to the L1236 cell line and at a concentration of 0.39 μg/ml to the R100 cell line. Finally, in a third experiment EDO-S101 and Brentuximab Vedotin were administered in combination to each of the two cell lines at the same concentrations that they were administered in the monotherapy experiments.

[3] = tested on: Hodgkin lymphoma cell lines; assay: Apoptosis by annexin V-FITC and Hoechst double staining, 7 cell lines; type: cell-based, human; conditions: 5 μM; 24 h and 48 h; all cells
Experimental: This assay was performed on 7 cell lines (HDLM2 was excluded due to the low number of available cells) at 24 h and 48 h following EDO-S101 treatment (5 μM, DMSO). Control cells were cultured in the same final concentration of DMSO. Only viable cells (using Hoechst staining) were focused on, and all necrotic cells were excluded. Apoptosis was determined using annexin V-FITC and Hoechst (33342) double staining according to the manufacturer's instructions (BD Biosciences). Cell-cycle fractions were determined by Hoechst nuclear staining. Briefly, cells were harvested, washed in PBS, incubated with annexin V-FITC and Hoechst solution for 30 minutes at room temperature. Data were collected using a FACSCalibur flow cytometer (BD Biosciences) and analyzed with FlowJo Version 7.5.5 obtainable from FlowJo, LLC. Results represent the mean value of 3 independent experiments.

## Cn1c(CCCCCCC(=O)NO)nc2cc(N(CCCl)CCCl)ccc21 [EDO-S101]
L428
  clones observed (clonogenic survival): only macrophagic clones being observed
L428 cells
  orbital tumour mass at site of injection: signification regression
L1236 [1]
  cell cycle checkpoint proteins, cellular and gene expression changes: activated cell cycle checkpoint proteins and induced cellular and gene expression changes compatible with the triggering of apoptosis
L1236-R100; R100, 48 hours after treatment with 50 μM
  viable cells: no viable cells
L1236-R100; bendamustine-resistant cell line R100
  anti-proliferative activity compared with vorinostat: greater than that of vorinostat
L1236 [2]
  cell death in combination with Brentuximab Vedotin: synergistic
[3]
  sensitivity for apoptosis: high sensitivity
